Series [1] in a line: Plasma carbidopa and levodopa after SINEMET CR alone or after carbidopa pre-dosing. Type of series: in vivo. The following applies: fed beagle dogs; for AUC(0-t): beagle, dog, plasma, po, read-out: AUC0-24; for increase in AUC0-24 / increase in peak concentrations: carbidopa pre-dosing + SINEMET CR vs SINEMET CR alone. The method, then:
The following experiment was designed to determine if effective levodopa concentration in vivo is increased at the presence of a higher ratio of carbidopa to levodopa (as compared to that used in conventional therapy).
SINEMET® CR tablets (50 mg carbidopa/200 mg levodopa) were administered to fed beagle dogs either alone or after pre-dosing with 12.5 mg and 25 mg of carbidopa, and plasma concentrations of carbidopa and levodopa were measured over time (data not shown).

The conditions of series [2]: in vivo; cited from earlier work.
The conditions of series [3]: doses of 400 mg per day; cited from earlier work.
The mark [4] stands for this setting: Carbidopa 12.5 mg pre-dose + SINEMET CR.
Setting [5] is: Carbidopa 25 mg pre-dose + SINEMET CR.
The mark [6] stands for this setting: SINEMET CR (50 mg carbidopa/200 mg levodopa) alone.

We go through two molecules from patent US20100316712A1, “PHARMACEUTICAL COMPOSITIONS FOR TREATMENT OF PARKINSON'S DISEASE AND RELATED DISORDERS” (Combinatorx, Incorporated, priority 2006, published 2010).

Like-named read-outs stand apart in the source and are kept apart here.

On to `C[C@@](Cc1ccc(O)c(O)c1)(NN)C(=O)O` [Carbidopa], for which the AUC(0-t) was determined as 592 ± 303 ng·h/mL in series [1] (setting [4]), 956 ± 534 ng·h/mL in series [1] (setting [5]) and 215 ± 43 ng·h/mL in series [1] (setting [6]). Moreover, in series [1], the “increase in AUC0-24” value is on record as roughly 100%. For the same molecule, the “increase in peak concentrations” value in series [1] is roughly 100%. Also, the “fraction of an administered dose absorbed” value in series [2] is “About 70%”. The adverse effects entry in series [3] is listed as “fails to elicit adverse effects”.
`N[C@@H](Cc1ccc(O)c(O)c1)C(=O)O` [Levodopa, L-3,4-dihydroxyphenylalanine]: the AUC(0-t) in series [1] (setting [4]) was found to be 8640 ± 2060 ng·h/mL; in series [1] (setting [5]), 7000 ± 3830 ng·h/mL; in series [1] (setting [6]) it was 3900 ± 298 ng·h/mL. In series [1], the “increase in AUC0-24” value is roughly 100%. The “increase in peak concentrations” value in series [1] is reported as roughly 100%.
